Laboratory results from patent US20180162862A1 (President and Fellows of Harvard College, priority 2015, published 2018).
In brackets after ≈: the same amount, converted by molar mass. Where two headings read alike, the source gives them in different places.

Columns and labels:
MSSA Newman = experiment: MIC test in TSB medium with MTT staining, MSSA Newman; assay type: cell-based, Staphylococcus aureus; conditions: Staphylococcus aureus
Description: MIC Test (Methicillin Susceptible Staphylococcus aureus (MSSA Newman))
Overnight cultures of MSSA Newman were grown up in TSB medium at 37° C. The cultures obtained were normalized with TSB to OD600=0.6 and diluted 100-fold. 1.5 μL of a dilution series of Example Compounds in DMSO (100×, in duplicate), and the diluted bacterial culture (150 μL) was added to wells of a sterile, clear 96 well plate and incubated at 37° C.

S. aureus ATCC 29213 = experiment: MIC test according to CLSI M7-A9, S. aureus ATCC 29213; assay type: cell-based; conditions: Staphylococcus aureus
How it was run: (§1)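 Per CLSI M7-A9, DMSO stocks diluted in cation-adjusted Mueller Hinton broth, plates incubated 24 h at 37 °C in air. MIC is the lowest concentration giving complete inhibition of visible growth, read visually and at 600 nm.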

S. aureus ATCC 43300 = experiment: MIC test according to CLSI M7-A9, S. aureus ATCC 43300; assay type: cell-based; conditions: Staphylococcus aureus
How it was run: as §1

S. aureus Newman = experiment: MIC test according to CLSI M7-A9, S. aureus Newman; assay type: cell-based; conditions: Staphylococcus aureus, CLSI M7-A9, CAMHB, 24 h (Table 3), read-out: S. aureus ATCC Newman MIC
Description: MIC Test (S. aureus ATCC 29213, S. aureus ATCC 43300 and S. aureus Newman)
Susceptibility testing of S. aureus ATCC 29213, ATCC 43300 and Newman was performed according to Clinical Laboratory Standard Institute (CLSI) guidelines M7-A9. Test articles were stored at room temperature prior to use, then dissolved in filtered sterile DMSO. Stock DMSO solutions were diluted further in cation-adjusted Mueller Hinton broth (CAMHB) to provide appropriate test concentrations. Cultures of S. aureus (ATCC 29213, ATCC 43300 or Newman) were added in accordance with CLSI guidelines and plates incubated at 37° C. in air for 24 h. Endpoints were determined visually (and by spectrophotometer at 600 nm) and the minimum inhibitory concentration (MIC) defined as the lowest concentration of test articles resulting in complete inhibition of visible bacterial growth. Results are detailed in Table 2 (S. aureus ATCC 29213 and ATCC 43300) and Table 3 (S. aureus ATCC 29213, ATCC 43300 and Newman).

[1] = TSB, 37° C., MTT staining after 7 h, read-out: MSSA Newman MIC at 7 h
[2] = TSB, 37° C., MTT staining after 24 h, read-out: MSSA Newman MIC at 24 h
[3] = ATCC29213, CLSI M7-A9, CAMHB, 24 h (Table 2), read-out: S. aureus ATCC 29213 MIC at 24 h
[4] = ATCC43300, CLSI M7-A9, CAMHB, 24 h (Table 2), read-out: S. aureus ATCC 43300 MIC at 24 h
[5] = ATCC29213, CLSI M7-A9, CAMHB, 24 h (Table 3), read-out: S. aureus ATCC 29213 MIC
[6] = ATCC43300, CLSI M7-A9, CAMHB, 24 h (Table 3), read-out: S. aureus ATCC 43300 MIC

SMILES | MIC (MSSA Newman; [1]) [µg/mL] | MIC (MSSA Newman; [2]) [µg/mL] | MIC (S. aureus ATCC 29213; [3]) [µg/mL] | MIC (S. aureus ATCC 43300; [4]) [µg/mL] | also measured
Cc1cc(NCCCNc2nc(-c3ccc(C(C)(C)C)cc3)nc3cc(=O)[nH]n23)ccc1Cl [Example 47, 2-(4-tert-butylphenyl)-4-({3-[(4-chloro-3-methylphenyl)amino]propyl}amino)-6H,7H-pyrazolo[1,5-a][1,3,5]triazin-7-one] | 3.1 (≈ 6.67 µM) | 3.1 (≈ 6.67 µM) | 2 (≈ 4.3 µM) | 4 (≈ 8.6 µM) | 
CC(C)(C)c1ccc(-c2nc(NCCCCc3ccccc3)n3[nH]c(=O)cc3n2)cc1 [Example 29, 2-(4-tert-butylphenyl)-4-[(4-phenylbutyl)amino]-6H,7H-pyrazolo[1,5-a][1,3,5]triazin-7-one] | 1.6 (≈ 3.85 µM) | 3.1 (≈ 7.46 µM) | 8 (≈ 19.3 µM) | 16 (≈ 38.5 µM) | 
CCCC(C)Nc1nc(-c2ccc(C(C)(C)C)cc2)nc2cc(=O)[nH]n12 (stereo not shown) [Example 28, 2-(4-tert-butylphenyl)-4-[(pentan-2-yl)amino]-6H,7H-pyrazolo[1,5-a][1,3,5]triazin-7-one] | 3.1 (≈ 8.77 µM) | 6.2 (≈ 17.5 µM) | 16 (≈ 45.3 µM) | 16 (≈ 45.3 µM) | 
CCCCNc1nc(-c2ccc(C(C)(C)C)cc2)nc2cc(=O)[nH]n12 [Example 16, 4-(butylamino)-2-(4-tert-butylphenyl)-6H,7H-pyrazolo[1,5-a][1,3,5]triazin-7-one] | 6.2 (≈ 18.3 µM) | 12.5 (≈ 36.8 µM) |  |  | 
Cc1cccc(OCCCNc2nc(-c3ccc(C(C)(C)C)cc3)nc3cc(=O)[nH]n23)c1C [Example 30, 2-(4-tert-butylphenyl)-4-{[3-(2,3-dimethylphenoxy)propyl]amino}-6H,7H-pyrazolo[1,5-a][1,3,5]triazin-7-one] | 1.6 (≈ 3.59 µM) | 6.2 (≈ 13.9 µM) | > 32 | > 32 | 
CNc1nc(-c2ccc(C(C)(C)C)cc2)nc2cc(=O)[nH]n12 [Example 17, 2-(4-tert-butylphenyl)-4-(methylamino)-6H,7H-pyrazolo[1,5-a][1,3,5]triazin-7-one] | 50 (≈ 168 µM) |  |  |  | 
Cc1ccnc(C)c1OCCCNc1nc(-c2ccc(C(C)(C)C)cc2)nc2cc(=O)[nH]n12 [Example 53, 2-(4-tert-butylphenyl)-4-({3-[(2,4-dimethylpyridin-3-yl)oxy]propyl}amino)-6H,7H-pyrazolo[1,5-a][1,3,5]triazin-7-one] | > 100 | > 100 | > 64 | 8 (≈ 17.9 µM) | 
CC(C)(C)c1ccc(-c2nc(NCCCOc3cnc(Cl)nc3)n3[nH]c(=O)cc3n2)cc1 [Example 52, 2-(4-tert-butylphenyl)-4-({3-[(2-chloropyrimidin-5-yl)oxy]propyl}amino)-6H,7H-pyrazolo[1,5-a][1,3,5]triazin-7-one] | 12.5 (≈ 27.5 µM) | 25 (≈ 55.1 µM) | > 64 | > 64 | 
Cc1cc(OCCNc2nc(-c3ccc(C(C)(C)C)cc3)nc3cc(=O)[nH]n23)ccc1Cl [Example 46, 2-(4-tert-butylphenyl)-4-{[2-(4-chloro-3-methylphenoxy)ethyl]amino}-6H,7H-pyrazolo[1,5-a][1,3,5]triazin-7-one] | 12.5 (≈ 27.7 µM) | 12.5 (≈ 27.7 µM) |  |  | 
CC(C)(C)c1ccc(-c2nc(O)n3[nH]c(=O)cc3n2)cc1 [Example 38, 2-(4-tert-butylphenyl)-4-hydroxy-6H,7H-pyrazolo[1,5-a][1,3,5]triazin-7-one] | 12.5 (≈ 44 µM) | 12.5 (≈ 44 µM) |  |  | 
Cc1cc(OCCCSc2nc(-c3ccc(C(C)(C)C)cc3)nc3cc(=O)[nH]n23)ccc1Cl [Example 2, 2-(4-tert-butylphenyl)-4-{[3-(4-chloro-3-methylphenoxy)propyl]sulfanyl}-6H,7H-pyrazolo[1,5-a][1,3,5]triazin-7-one] |  |  |  |  | MIC (MSSA Newman; 7 h, read-out: MSSA Newman MIC at 7 h): > 100 µg/mL; MIC (S. aureus ATCC 29213; ATCC29213, 24 h, read-out: S. aureus ATCC 29213 MIC at 24 h): > 32 µg/mL; MIC (S. aureus ATCC 43300; ATCC43300, 24 h, read-out: S. aureus ATCC 43300 MIC at 24 h): > 32 µg/mL
CC(C)(C)c1ccc(-c2nc(NCCN3CCOCC3)n3[nH]c(=O)cc3n2)cc1 [Example 81, 2-(4-tert-butylphenyl)-4-{[2-(morpholin-4-yl)ethyl]amino}-6H,7H-pyrazolo[1,5-a][1,3,5]triazin-7-one] |  |  |  |  | MIC (S. aureus ATCC 29213; [5]): 128 µg/mL (≈ 323 µM); MIC (S. aureus ATCC 43300; [6]): 128 µg/mL (≈ 323 µM); MIC (S. aureus Newman): 128 µg/mL (≈ 323 µM)
Cc1cc(OCCCNc2nc(-c3ccc(C(C)(C)C)cc3)nc3cc(=O)[nH]n23)ccc1Cl [Example 14, 2-(4-tert-butylphenyl)-4-{[3-(4-chloro-3-methylphenoxy)propyl]amino}-6H,7H-pyrazolo[1,5-a][1,3,5]triazin-7-one] | 3.3 (≈ 7.08 µM) | 3.3 (≈ 7.08 µM) | 4 (≈ 8.58 µM) | 4 (≈ 8.58 µM) | 
CC(C)(C)c1ccc(-c2nc(N)n3[nH]c(=O)cc3n2)cc1 [Example 37, 4-amino-2-(4-tert-butylphenyl)-6H,7H-pyrazolo[1,5-a][1,3,5]triazin-7-one] | 25 (≈ 88.2 µM) |  |  |  | 
CN(CCNc1nc(-c2ccc(C(C)(C)C)cc2)nc2cc(=O)[nH]n12)C1CCCCC1 [Example 83, 2-(4-tert-butylphenyl)-4-({2-[cyclohexyl(methyl)amino]ethyl}amino)-6H,7H-pyrazolo[1,5-a][1,3,5]triazin-7-one] |  |  |  |  | MIC (S. aureus ATCC 29213; [5]): 32 µg/mL (≈ 75.7 µM); MIC (S. aureus ATCC 43300; [6]): 32 µg/mL (≈ 75.7 µM); MIC (S. aureus Newman): 32 µg/mL (≈ 75.7 µM)
Cc1ccc(-c2nc(NCCCNc3ccc(Cl)c(C)c3)n3[nH]c(=O)cc3n2)cc1 [Example 68, 4-({3-[(4-chloro-3-methylphenyl)amino]propyl}amino)-2-(4-methylphenyl)-6H,7H-pyrazolo[1,5-a][1,3,5]triazin-7-one] | 1.6 (≈ 3.78 µM) | 3.1 (≈ 7.33 µM) | 16 (≈ 37.8 µM) | 8 (≈ 18.9 µM) | 
Cc1ccc(OCCCNc2nc(-c3ccc(C(C)(C)C)cc3)nc3cc(=O)[nH]n23)cc1C [Example 49, 2-(4-tert-butylphenyl)-4-{[3-(3,4-dimethylphenoxy)propyl]amino}-6H,7H-pyrazolo[1,5-a][1,3,5]triazin-7-one] | 3.1 (≈ 6.96 µM) | 6.2 (≈ 13.9 µM) | 32 (≈ 71.8 µM) | 16 (≈ 35.9 µM) | 
CCCCNc1nc(-c2ccc(C)cc2)nc2cc(=O)[nH]n12 [Example 70, 4-(butylamino)-2-(4-methylphenyl)-6H,7H-pyrazolo[1,5-a][1,3,5]triazin-7-one] | > 100 | > 100 |  |  | 
COc1ccc(CNc2nc(-c3ccc(C(C)(C)C)cc3)nc3cc(=O)[nH]n23)cc1 [Example 15, 2-(4-tert-butylphenyl)-4-{[(4-methoxyphenyl)methyl]amino}-6H,7H-pyrazolo[1,5-a][1,3,5]triazin-7-one] | 3.1 (≈ 7.68 µM) | 12.5 (≈ 31 µM) | 8 (≈ 19.8 µM) | 8 (≈ 19.8 µM) | 
CC(C)(C)c1ccc(-c2nc3cc(=O)[nH]n3c(=S)[nH]2)cc1 [Example 1, 2-(4-tert-butylphenyl)-4-sulfanylidene-3H,4H,6H,7H-pyrazolo[1,5-a][1,3,5]triazin-7-one] | 12.5 (≈ 41.6 µM) | 12.5 (≈ 41.6 µM) | 16 (≈ 53.3 µM) | 16 (≈ 53.3 µM) | 
CC(=O)c1ccc(-c2nc(NCCCNC3Cc4ccccc4C3)n3[nH]c(=O)cc3n2)cc1 [Example 103, 2-(4-acetylphenyl)-4-({3-[(2,3-dihydro-1H-inden-2-yl)amino]propyl}amino)-6H,7H-pyrazolo[1,5-a][1,3,5]triazin-7-one] |  |  |  |  | MIC (S. aureus ATCC 29213; [5]): 16 µg/mL (≈ 36.2 µM); MIC (S. aureus ATCC 43300; [6]): 8 µg/mL (≈ 18.1 µM); MIC (S. aureus Newman): 32 µg/mL (≈ 72.3 µM)
COCCCNc1nc(-c2ccc(C(C)(C)C)cc2)nc2cc(=O)[nH]n12 [Example 27, 2-(4-tert-butylphenyl)-4-[(3-methoxypropyl)amino]-6H,7H-pyrazolo[1,5-a][1,3,5]triazin-7-one] | 50 (≈ 141 µM) | 100 (≈ 281 µM) | > 32 | > 32 | 
